Measurements as given in US20260152636A1, “GELLING SOLUTIONS FOR ADMINISTRATION OF COMPOUNDS TO THE INNER EAR” (Spiral Therapeutics, Inc., priority 2020, published 2026).

Columns and labels:
[1] = Dexamethasone levels in plasma and perilymph after single IT injection in green monkey; assay type: in vivo, African green monkey (Chlorocebus sabaeus); settings: through Day 22
Experimental: Information on absorption, distribution and pharmacokinetics of the PEG-trilysine polymer formulation by otic administration were obtained from a pharmacokinetic (PK) and tolerability study conducted in the African green monkey (Chlorocebus sabaeus)
The perilymph and plasma concentrations of the PEG-trilysine polymer formulation were evaluated following a single IT injection. Perilymph and plasma levels of test and control articles were measured after 1, 10 and 22 days. Given the small study size (N=9 enrolled) and number of total ears treated, PK data are presented as descriptive statistics only.
The absorption and distribution of dexamethasone was also investigated in African green monkeys.

in vivo = settings: both, Hartley, guinea pig, other: intratympanic, 5 μL
Experimental: (§1) An 8-week toxicology study was performed to assess the safety and pharmacokinetics of intratympanic administration of a PEG-trilysine polymer formulation in Hartley guinea pigs. […] Hartley guinea pigs of both sexes [n=46 (23 males and 23 females) were used for the study. Following 3 to 7 days of acclimation, all guinea pigs underwent baseline ABRs tests at 4, 10, and 20 kHz.
(§2) Perilymph samples were collected at terminus at 3 days, 1 week, 4 weeks, and 8 weeks post administration.

[2] = guinea pig, in vivo
Experimental: as §1, §2

MD patients = settings: cited from earlier work
Hartley guinea pigs = assay: 8-week safety study, ABR threshold shift after intratympanic injection; assay type: in vivo, guinea pig; settings: IT injection; Days 3 and 14; positive control
Description: Groups 1-3 were further divided into subgroups with varying survival times up to 8 weeks. The number of ears for the 4-week and 8-week timepoints in this study were powered to detect a 20 dB shift from baseline in the ABR threshold measurement at each of the three test frequencies (1-way t-test; independent means; apriori; power=0.95), using sample data to estimate variability from pilot studies. Auditory brainstem responses and blood sampling were collected at specified in-life timepoints, including terminus. Perilymph sampling, middle ear visualization, and histology sample preparation were performed on specified animals at terminus.

| Compound | Plasma levels of dexamethasone over time [1] | concentration at 1 week (in vivo; perilymph) [ng/mL] | concentration at 3 days (in vivo; perilymph) [ng/mL] | concentration at 1 week (in vivo; plasma) [ng/mL] | concentration at 3 days (in vivo; plasma) [ng/mL] | Perilymph Mean (ng/mL) [2] | Plasma Mean (ng/mL) [2] | Incidence of TM perforation (MD patients; end of Phase 1b study, 3 mg or 12 mg single IT injection) [%] | Safety and tolerability (MD patients; single IT injection of 12 mg, formulated with poloxamer 407, unilateral MD) | Improvement in aural fullness (MD patients; IT therapy, one study) [%] | ABR threshold shift (Hartley guinea pigs) [dB] |
| --- | --- | --- | --- | --- | --- | --- | --- | --- | --- | --- | --- |
| C[C@@H]1C[C@H]2[C@@H]3CCC4=CC(=O)C=C[C@]4(C)[C@@]3(F)[C@@H](O)C[C@]2(C)[C@@]1(O)C(=O)CO [Dexamethasone, dexamethasone] | remained within detectable limits through Day 22 | 1700 | 109 | 3.2 | 5.5 | BLQ | BLQ | 3 | safe, well-tolerated |  |  |
| gentamicin |  |  |  |  |  |  |  |  |  | 31 | ≥ 55 |
